≈ marks a conversion by molar mass, not a printed value.
Legend:
[1] = AUC (0 to 24 hrs) in Beagle dog at 10 mg/kg,po administrated at 0.25 to 24 hrs by LC-MS/MS analysis; assay type: ADME, organism-based, Canis lupus familiaris; conditions: in vivo, time 0.25-24 hrs
[2] = Total clearance in Sprague-Dawley rat at 5 mg/kg,iv administrated at 0.25 to 24 hrs by LC-MS/MS analysis; assay type: ADME, organism-based; conditions: in vivo, time 0.25-24 hrs
[3] = AUC (0 to 24 hrs) in Sprague-Dawley rat at 15 mg/kg,po administrated at 0.25 to 24 hrs by LC-MS/MS analysis; assay type: ADME, organism-based; conditions: in vivo, time 0.25-24 hrs
[4] = Cmax in Beagle dog at 10 mg/kg,po administrated at 0.25 to 24 hrs by LC-MS/MS analysis; assay type: ADME, organism-based, Canis lupus familiaris; conditions: in vivo, time 0.25-24 hrs
[5] = Cmax in Sprague-Dawley rat at 15 mg/kg,po administrated at 0.25 to 24 hrs by LC-MS/MS analysis; assay type: ADME, organism-based; conditions: in vivo, time 0.25-24 hrs
[6] = Half life in Beagle dog at 5 mg/kg,iv administrated at 0.25 to 24 hrs by LC-MS/MS analysis; assay type: ADME, organism-based, Canis lupus familiaris; conditions: in vivo, time 0.25-24 hrs
[7] = Total clearance in Beagle dog at 5 mg/kg,iv administrated at 0.25 to 24 hrs by LC-MS/MS analysis; assay type: ADME, organism-based, Canis lupus familiaris; conditions: in vivo, time 0.25-24 hrs
[8] = Oral bioavailability in Sprague-Dawley rat at 15 mg/kg administrated at 0.25 to 24 hrs by LC-MS/MS analysis; assay type: ADME, organism-based; conditions: in vivo, time 0.25-24 hrs
[9] = Half life in Sprague-Dawley rat at 5 mg/kg,iv administrated at 0.25 to 24 hrs by LC-MS/MS analysis; assay type: ADME, organism-based; conditions: in vivo, time 0.25-24 hrs
[10] = Intrinsic clearance in human liver microsomes; assay type: ADME, Microsome; conditions: read-out: CLH
[11] = Oral bioavailability in Beagle dog at 10 mg/kg administrated at 0.25 to 24 hrs by LC-MS/MS analysis; assay type: ADME, organism-based, Canis lupus familiaris; conditions: in vivo, time 0.25-24 hrs
[12] = Intrinsic clearance in human hepatocyte measured per 10^6 cells; assay type: ADME, cell-based; conditions: hepatocytes, read-out: CLH
SNU-16 [13] = assay: Antitumor activity against human SNU-16 cells xenografted in mouse assessed as tumor growth inhibition at 15 mg/kg,po administrated once daily for 3 weeks relative to control; assay type: functional; conditions: SNU-16, 504 h, read-out: TGI
[14] = Cmax in Beagle dog at 15 mg/kg,po administrated at 0.25 to 24 hrs by LC-MS/MS analysis; assay type: ADME, organism-based, Canis lupus familiaris; conditions: in vivo, time 0.25-24 hrs
[15] = Solubility of compound in FeSSIF; assay type: ADME
[16] = Solubility of compound in FaSSIF; assay type: ADME
[17] = Toxicity in mouse xenografted with human SNU-16 cells assessed as body weight change at 2 to 15 mg/kg,po administrated once daily for 3 weeks; assay type: organism-based; conditions: in vivo, 504 h, dose 2-15 mg/kg
RT-112 [18] = assay: Antitumor activity against human RT-112 cells xenografted in mouse assessed as tumor growth inhibition at 15 mg/kg,po administrated once daily for 3 weeks relative to control; assay type: functional; conditions: RT-112, 504 h, read-out: TGI
[19] = Antitumor activity against patient derived STO357 PDX cells xenografted in mouse assessed as downregulation of ERK phosphorylation at 15 mg/kg,po administration and measured after 7 hrs by MSD assay; assay type: functional, Homo sapiens
[20] = Unbound drug concentration in mouse plasma xenografted with patient derived STO357 PDX cells at 15 mg/kg,po administration and measured after 1 hr by LC-MS/MS analysis; assay type: ADME, organism-based; conditions: in vivo
RT-112 [21] = assay: Antitumor activity against human RT-112 cells xenografted in mouse assessed as tumor growth inhibition at 5 mg/kg,po administrated once daily for 3 weeks relative to control; assay type: functional; conditions: RT-112, 504 h, read-out: TGI
[22] = Aqueous solubility of the compound at pH 7.4; assay type: physicochemical
[23] = Toxicity in mouse xenografted with patient derived STO357 PDX cells assessed as body weight change at 5 to 15 mg/kg,po administrated once daily for 3 weeks; assay type: organism-based; conditions: in vivo, 504 h, dose 5-15 mg/kg
[24] = Toxicity in mouse xenografted with human RT-112 cells assessed as body weight loss at 15 mg/kg,po administrated once daily for 3 weeks; assay type: organism-based; conditions: in vivo, 504 h
[25] = Oral bioavailability in Beagle dog at 15 mg/kg administrated at 0.25 to 24 hrs by LC-MS/MS analysis; assay type: ADME, organism-based, Canis lupus familiaris; conditions: in vivo, time 0.25-24 hrs
[26] = Antitumor activity against patient derived STO357 PDX cells xenografted in mouse assessed as tumor growth inhibition at 5 mg/kg,po administrated once daily for 3 weeks relative to control; assay type: functional; conditions: Homo sapiens, 504 h, read-out: TGI
SNU-16 [27] = assay: Antitumor activity against human SNU-16 cells xenografted in mouse assessed as inhibition of tumor growth at po administrated once daily for 3 weeks; assay type: functional, organism-based
[28] = Unbound drug concentration in mouse plasma xenografted with patient derived STO357 PDX cells at 15 mg/kg,po administration and measured after 12 hr by LC-MS/MS analysis; assay type: ADME, organism-based; conditions: in vivo
[29] = Dissociation constant, pKa of the compound; assay type: physicochemical
[30] = Aqueous solubility of the compound at pH 2; assay type: physicochemical
[31] = AUC (0 to 24 hrs) in Beagle dog at 15 mg/kg,po administrated at 0.25 to 24 hrs by LC-MS/MS analysis; assay type: ADME, organism-based, Canis lupus familiaris; conditions: in vivo, time 0.25-24 hrs
SNU-16 [32] = assay: Antitumor activity against human SNU-16 cells xenografted in mouse assessed as tumor growth inhibition at 2 mg/kg,po administrated once daily for 3 weeks relative to control; assay type: functional; conditions: SNU-16, 504 h, read-out: TGI
RT-112 [33] = assay: Antitumor activity against human RT-112 cells xenografted in mouse assessed as inhibition of tumor growth at po administrated once daily for 3 weeks; assay type: functional, organism-based
[34] = Lipophilicity, logP of compound; assay type: physicochemical; conditions: octanol/water
SNU-16 [35] = assay: Antitumor activity against human SNU-16 cells xenografted in mouse assessed as tumor growth inhibition at 5 mg/kg,po administrated once daily for 3 weeks relative to control; assay type: functional; conditions: SNU-16, 504 h, read-out: TGI
[36] = Solubility of compound in SGF; assay type: ADME
[37] = Antitumor activity against patient derived STO357 PDX cells xenografted in mouse assessed as downregulation of ERK phosphorylation at 5 mg/kg,po administration and measured after 7 hrs by MSD assay; assay type: functional, Homo sapiens
RT-112 [38] = assay: Antitumor activity against human RT-112 cells xenografted in mouse assessed as tumor growth inhibition at 2 mg/kg,po administrated once daily for 3 weeks relative to control; assay type: functional; conditions: RT-112, 504 h, read-out: TGI
[39] = Unbound drug concentration in mouse plasma xenografted with patient derived STO357 PDX cells at 15 mg/kg,po administration and measured after 15 mins by LC-MS/MS analysis; assay type: ADME, organism-based; conditions: in vivo, 0.25 h

Question: What does the source list for `C=CC(=O)N1C[C@@H](n2nc(C#Cc3ccc4c(c3)ncn4C3CC3)c(C(N)=O)c2NC)C[C@@H]1COC`?
Answer: AUC(0-t) [1]: 312 ng·h/mL; clearance [2]: 26.1 mL/min/kg; AUC(0-t) [3]: 3020 ng·h/mL; Cmax [4]: 124 ng/mL; Cmax [5]: 1720 ng/mL; half-life [6]: 6.46 h; clearance [7]: 31.1 mL/min/kg; bioavailability [8]: 31.4%; half-life [9]: 4.88 h; microsomal CLint [10]: 47.4 µL/min/mg; bioavailability [11]: 4.6%; hepatocyte CLint [12]: 6.6 µL/min/1e6 cells

Question: With `C=CC(=O)N1C[C@@H](n2nc(C#Cc3c(F)cc4c(ncn4C4CC4)c3F)c(C(N)=O)c2NC)C[C@@H]1COC` [RESIGRATINIB] as the molecule, how does the inhibition in vivo at 15 mg/kg (SNU-16 [13]) read?
Answer: 93%

Question: What about the Cmax [14] of the same molecule?
Answer: 815 ng/mL

Question: What about the solubility [15] of the same molecule?
Answer: 300 µg/mL (≈ 573 µM)

Question: What about the solubility [16] of the same molecule?
Answer: 400 µg/mL (≈ 764 µM)

Question: And the Activity [17]?
Answer: Non-Toxic

Question: And the inhibition in vivo at 15 mg/kg (RT-112 [18])?
Answer: 99%

Question: What about the Activity [19] of the same molecule?
Answer: 75%

Question: What about the “Cp(f)” value [20] of the same molecule?
Answer: ~ 50 ng/ml

Question: And the inhibition in vivo at 5 mg/kg (RT-112 [21])?
Answer: 91%

Question: And the clearance [2]?
Answer: 16.1 mL/min/kg

Question: What about the solubility [22] of the same molecule?
Answer: 69.7 µM (≈ 36.5 µg/mL)

Question: What about the Activity [23] of the same molecule?
Answer: Non-Toxic

Question: What about the Activity [24] of the same molecule?
Answer: 5.4%

Question: What about the bioavailability [25] of the same molecule?
Answer: 17.5%

Question: What about the AUC(0-t) [3] of the same molecule?
Answer: 3740 ng·h/mL

Question: What about the inhibition in vivo at 5 mg/kg [26] of the same molecule?
Answer: 90%

Question: And the Activity (SNU-16 [27])?
Answer: Dose-Dependent Effect

Question: What about the “Drug uptake(free)” value [28] of the same molecule?
Answer: Not Active

Question: What about the Cmax [5] of the same molecule?
Answer: 1490 ng/mL

Question: And the half-life [6]?
Answer: 6.89 h

Question: What about the pKa [29] of the same molecule?
Answer: 2.22

Question: And the solubility [30]?
Answer: 301 µM (≈ 158 µg/mL)

Question: What about the AUC(0-t) [31] of the same molecule?
Answer: 2100 ng·h/mL

Question: What about the inhibition in vivo at 2 mg/kg (SNU-16 [32]) of the same molecule?
Answer: 69%

Question: And the clearance [7]?
Answer: 23.9 mL/min/kg

Question: And the bioavailability [8]?
Answer: 24.3%

Question: What about the Activity (RT-112 [33]) of the same molecule?
Answer: Dose-Dependent Effect

Question: And the logP [34]?
Answer: 2.5

Question: And the inhibition in vivo at 5 mg/kg (SNU-16 [35])?
Answer: 81%

Question: What about the solubility [36] of the same molecule?
Answer: 800 µg/mL (≈ 1530 µM)

Question: What about the Activity [37] of the same molecule?
Answer: 25%

Question: What about the inhibition in vivo at 2 mg/kg (RT-112 [38]) of the same molecule?
Answer: 80%

Question: And the half-life [9]?
Answer: 5.46 h

Question: And the microsomal CLint [10]?
Answer: 59.6 µL/min/mg

Question: And the “Cp(f)” value [39]?
Answer: ~ 100 ng/ml

Question: What about the hepatocyte CLint [12] of the same molecule?
Answer: 7.2 µL/min/1e6 cells

From ChEMBL document CHEMBL5537196, “Discovery of KIN-3248, An Irreversible, Next Generation FGFR Inhibitor for the Treatment of Advanced Tumors Harboring FGFR2 and/or FGFR3 Gene Alterations” (J Med Chem, 2024)
